# How the values were obtained:
# [1] = tested on: BV2 (mouse microglia) cell line; test: pHrodo-myelin phagocytosis/cell viability high content imaging assay: viability (cell count, nuclear area, nuclear intensity); settings: for 1. Cell count (% control) / 2. Nuclear Area (% Control) / 3. Nuclear DNA Intensity (% control): 48 hours treatment
# How it was run: (§1)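 Duplicate single-point screen at 10 μM over 48 h, combined with pHrodo-myelin phagocytosis during the last 20 h. Cytotoxicity is taken from imaged cell counts and nuclear intensity changes, normalized to untreated wells as % control.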
# [2] = tested on: HMC3 (human microglia) cell line; test: as above; settings: for 1. Cell count (% control) / 2. Nuclear Area (% Control) / 3. Nuclear DNA Intensity (% control): 48 hours treatment
# How it was run: as §1
# [3] = tested on: BV2 (mouse microglia) cell line; test: pHrodo-myelin phagocytosis/cell viability high content imaging assay: phagocytosis signal; format: cell-based
# How it was run: (§2)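 Phagocytosis and cell viability were measured together by high content imaging about 22 hours after pHrodo-myelin addition. Three measurements were extracted from the images. Intensity increase and decrease were taken as early and later apoptosis, respectively.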
# [4] = tested on: HMC3 (human microglia) cell line; test: as above; format: cell-based
# How it was run: as §2
# [5] = BV2, compound 10 uM, pHrodo-myelin
# [6] = HMC3, compound 10 uM, pHrodo-myelin
# [7] = BV2 cells, 10 uM compound, 48 hours treatment, pHrodo-myelin final 20 hours
# [8] = HMC3 cells, 10 uM compound, 48 hours treatment, pHrodo-myelin final 20 hours
Structure (SMILES),"1. Cell count (% control) ([1]; BV2, compound 10 uM)","2. Nuclear Area (% Control) ([1]; BV2, compound 10 uM)","3. Nuclear DNA Intensity (% control) ([1]; BV2, compound 10 uM)","1. Cell count (% control) ([2]; HMC3, compound 10 uM)","2. Nuclear Area (% Control) ([2]; HMC3, compound 10 uM)","3. Nuclear DNA Intensity (% control) ([2]; HMC3, compound 10 uM)","4. Phagocytosis (% control) [3, 5] [% control]","4. Phagocytosis (% control) [4, 6] [% control]","Mouse microglial cytotoxicity at 10 μM (<70% control) ([1]; 10 μM, BV2)","Human microglial cytotoxicity at 10 μM (<70% control) ([2]; 10 μM, HMC3)","Stimulation of mouse microglial phagocytosis at 10 μM (>150% control) ([3]; 10 μM, BV2)","Inhibition of human microglial phagocytosis at 10 μM (<70% control) ([4]; 10 μM, HMC3)","1. Cell count (% control) ([1]; BV2 cells, 10 uM compound)","2. Nuclear Area (% Control) ([1]; BV2 cells, 10 uM compound)","3. Nuclear DNA Intensity (% control) ([1]; BV2 cells, 10 uM compound)","1. Cell count (% control) ([2]; HMC3 cells, 10 uM compound)","2. Nuclear Area (% Control) ([2]; HMC3 cells, 10 uM compound)","3. Nuclear DNA Intensity (% control) ([2]; HMC3 cells, 10 uM compound)","4. Phagocytosis (% control) [3, 7] [% control]","4. Phagocytosis (% control) [4, 8] [% control]"
C[C@H](CCCC(C)(C)O)[C@H]1CC[C@H]2[C@@H]3CC=C4C[C@@H](O)CC[C@]4(C)[C@H]3CC[C@]12C [UNC10302834A],75.6,103.0,136.7,99.4,81.6,144.3,50.2,45.5,–,–,–,–,–,–,–,–,–,–,–,–
C=C1C(=O)[C@]23[C@H](O)[C@H]1CC[C@H]2[C@@]12CO[C@]3(O)[C@@H](O)[C@@H]1C(C)(C)CC[C@@H]2O [Oridonin],–,–,–,–,–,–,–,–,Y (The compound was found to be cytotoxic (cell count threshold: <70% control) when murine immortalized microglial cells were dosed at 10 μM (Y: yes)),Y (The compound was found to be cytotoxic (cell count threshold: <70% control) when human immortalized microglial cells were dosed at 10 μM (Y: yes)),Y (The compound was found to stimulate phagocytosis (response threshold: >150% control) when murine immortalized microglial cells were dosed at 10 μM (Y: yes)),Y (The compound was found to inhibit phagocytosis (response threshold: <70% control) when human immortalized microglial cells were dosed at 10 μM (Y: yes)),–,–,–,–,–,–,–,–
CNC(=O)CN1CCC(Oc2cc3c(Nc4cccc(Cl)c4F)ncnc3cc2OC)CC1 [UNC10302865A],–,–,–,–,–,–,–,–,–,–,–,–,102.4,110.1,101.0,132.1,105.8,90.8,68.8,152.7
COc1cc(Nc2ncc(F)c(Nc3ccc4c(n3)N(COP(=O)([O-])[O-])C(=O)C(C)(C)O4)n2)cc(OC)c1OC.[Na+].[Na+] [UNC10302863A],–,–,–,–,–,–,–,–,–,–,–,–,16.5,113.6,22.9,80.8,86.8,124.3,0.00651,201.3
CCC(=O)N1CCC(NC(=O)Nc2ccc(OC(F)(F)F)cc2)CC1 [UNC10302681A],–,–,–,–,–,–,–,–,–,–,–,–,105.6,99.0,108.5,147.2,103.6,94.9,102.7,96.8
Cl.NCCOCCOCCNC(=O)Cc1ccc(Nc2nc(NCc3ccc(F)cc3)nc(NCC3CCCCC3)n2)cc1 [UNC10302950A],–,–,–,–,–,–,–,–,–,–,–,–,46.4,117.0,104.0,97.2,95.7,118.1,232.8,36.3
Cc1cc(SCc2sc(-c3ccc(C(F)(F)F)c(F)c3)nc2C)ccc1OCC(=O)O [UNC10302862A],–,–,–,–,–,–,–,–,–,–,–,–,73.4,105.0,104.6,84.5,103.8,93.4,104.2,107.7
Nc1ncnc2c1nc(Br)n2[C@@H]1O[C@@H]2COP(=O)([O-])O[C@H]2[C@H]1O.[Na+] [UNC10302698A],97.0,105.8,98.8,137.9,97.3,96.1,164.5,80.6,–,–,–,–,–,–,–,–,–,–,–,–
Br.CCCc1cc(-c2nc(-c3ccc(C)cc3)cs2)ccn1 [UNC10302889A],–,–,–,–,–,–,–,–,–,–,–,–,52.9,97.6,117.7,81.4,79.1,141.7,198.0,101.1

# Source: publication PMC9019904, “AD Informer Set: Chemical tools to facilitate Alzheimer's disease drug discovery” (Alzheimer's & Dementia : Translational Research & Clinical …, 2022)
